This is an account of results in patent US20040167226A1, “Methods for the treatment of pain and traumatic injury using benzamides and compositions containing the same” (priority 2002, published 2004).

In series [1] the test system is Taxol-induced mechanical allodynia. In words: Taxol-induced neuropathic pain rat model, 50% paw withdrawal threshold (up-down method). The format is in vivo, Sprague-Dawley rats. The conditions noted are these: rats. The source says: Sprague-Dawley male rats with 150-160 grams of body weight were used in the studies presented herein. Rats were trained in the enclosure one hour per day in the morning for a one week period prior to obtaining the baseline response. Whereas the mouse studies assessed percentage of response, the rat studies determined 50% of the paw withdrawal threshold, also called the up-down method as developed by Chung and colleagues. In order to obtain consistent data, naïve rats with paw withdrawal threshold no less than 4 grams were included for further studies. Taxol at a dose of 1 mg/kg (body weight) was administered daily to rats intraperitoneally. As observed in mice, the rats treated with Taxol daily developed stable mechanical allodynia on day 9 and thereafter. On day 13 and day 14 of Taxol induction, the rats pain behavior in term of 50% of paw withdrawal threshold was measured. Only those rats with paw withdrawal threshold measurements no greater than 7 grams for two consecutive days were included for drug testing. Generally speaking, the mechanical allodynia in Taxol treated rats fell in the range of 1-4 gram of paw withdrawal threshold.
1 ml per kg of body weight of either 50 mg/ml or 20 mg/ml of Compound A was administered to rats via oral gavage feeding (p.o.), to yield a dose of either 50 mg/Kg (body weight) or 20 mg/Kg (body weight). The same corresponding volume of 1% methylcellulose was used as vehicle control. 34 male Sprague-Dawely rats were employed for the study. The baseline paw withdrawal threshold (grams of force applied to the plantar area of the right hind paw) and neuropathic pain induction with daily intraperitoneal administration of 1 mg/kg (body weight) was performed as indicated in the previous section. The Taxol treatment was continued for 15 days until the pain threshold remained relatively stable. Animals with baseline greater than 4 grams and with threshold […] post induction were included in the drug testing. 27 rats met the criteria for the next step studies and were randomly assigned into four groups. Group 1 consisting of 7 rats was given 1% methylcellulose as vehicle control group, 1 ml of vehicle per kilograms of body weight was administered to animal via p.o.; group 2 with 6 animals was dosed at 20 mg/kg (body weight) of Compound A via oral gavage feeding (p.o.); group 3 with 7 rats was dosed at 50 mg/kg of Compound A, and the fourth group with 7 rats received Gabapentine at 50 mg/kg via p.o. in the same vehicle as a positive control group. Those rats were habituated in the enclosure and 50% of paw withdrawal thresholds (grams of force) were measured using a set of von Frey filaments, as described in the previous section, at time points of 1, 2, 3, 6, and 24 hours postdosing in a blinded fashion. The tester had no knowledge of which animals received drug or vehicle. It was noted that rats tested were very sleepy in the late afternoon (for 6 hour postdosing measurement), thus the data would not be reliable for 6-hour postdosing time points. […] After finishing the 24 hour postdosing measurement, the paw withdrawal threshold of each animal was calculated and data was analyzed.

A short description of series [2]: Brain-blood distribution of Compound A in the rat. The conditions noted are these: brain / whole blood, single po dose 30 mg/kg, n = 5, read-out: Brain/Blood Ratio (Mean ± SD). Format: in vivo. The procedure: (§1) Blood-brain distribution of Compound A was assessed in the mouse, rat, and squirrel monkey by determining the concentrations of Compound A in blood and brain tissue at specific times post dose. Rats and mice received a single po dose of 30 mg/kg. The monkeys received a twice-daily 10 mg/kg po dose of Compound A for a total of 5 weeks prior to sacrifice. Brain to blood ratios for Compound A, as shown below in Table 4, show high penetration of the blood-brain barrier.

Series [3] is described as follows: Brain-blood distribution of Compound A in the mouse. Format: in vivo. The conditions noted are these: brain / whole blood, single po dose 30 mg/kg, n = 5, read-out: Brain/Blood Ratio (Mean ± SD). Here is the method:
as §1

Series [4] in a line: Brain-blood distribution of Compound A in the squirrel monkey. The format is in vivo. The conditions noted are these: brain / whole blood, twice-daily 10 mg/kg po for 5 weeks, 24 h post-dose, n = 12, read-out: Brain/Blood Ratio (Mean ± SD). The procedure: as §1
Where [5] appears, read: 20 mg/kg p.o. in 1% methylcellulose.

Regarding `CC(=O)Nc1ccc(C(=O)NC(C)(C)C)cc1` [Compound A, N-tert-butyl-4-acetamidobenzamide], the “analgesic effect on neuropathic pain (in words)” value in series [1] (setting [5]) is “has an analgesic effect”. In series [1] (setting [5]), the “onset of analgesic effect” value is “fast onset (one-hour postdosing)”. In addition, the “time of peak analgesic effect postdosing” value in series [1] (setting [5]) was 2 h. In addition, in series [1] (20 mg/kg p.o. in 1% methylcellulose, vehicle about 4 grams), the paw withdrawal threshold entry is given as “greater than 7 grams”. Further, in series [1] (50 mg/kg p.o. in 1% methylcellulose), the “pain blocking effect (in words)” value is given as “showed a pain blocking effect at 1 hour postdosing, with the effect diminished later on”. For the same molecule, the “analgesic effect compared with positive control” value in series [1] (Compound A 20 mg/kg p.o. vs Gabapentine 50 mg/kg p.o.) is listed as “comparable to the positive control”. Moreover, the Kp at 0.5 h in series [2] (0.5 h post-dose) is 0.71 ± 0.03; in series [3] (0.5 h post-dose), 0.79 ± 0.05. Besides, the figures for the Kp at 1 h in series [2] (1.0 h post-dose) and in series [3] (1.0 h post-dose) were 0.66 ± 0.02 and 0.8 ± 0.05, respectively. The figures for the Kp at 2 h in series [2] (2.0 h post-dose) and in series [3] (2.0 h post-dose) were 0.67 ± 0.03 and 0.76 ± 0.06, respectively. Further, in series [4], the Kp at 24 h is 0.88 ± 0.09.
